Data on one compound can be found in patent publication US8742082B2, “Compositions and methods for influencing satiety, lipid metabolism, and fat utilization” (Nestec S.A., priority 2008, dated 2014).

Data set [1] in a line: Chronic oral OEA in high fat diet: liver, adipose fat pads and body weight. Format: in vivo. To be noted: C3H mice, 4 weeks. The source says: The physiological and biochemical effects of chronic oral OEA administration were investigated. Mice were chronically fed with OEA, provided as a supplement during 4 weeks, to study the effect on body weight gain and cumulative food intake, among other parameters.
Animals, diet and experimental design. Adult male C3H mice purchased at 8 weeks of age were individually housed and maintained ad libitum on different diets and water for 2 weeks. Seven mice were allocated in 3 groups by randomization by weight, and fed with a high fat diet (lipids represented 50% of daily energy) during 2 weeks. The composition of the high fat diet per kg was: 284.5 g of corn starch, 89.5 g of saccharose, 250 g of casein, 50 g of cellulose, 10 g of a mix of vitamins (V1001), 35 g of a mix of minerals (S10026) and 281 g of canola oil (UPAE, Jouy en Josas, France). Then, OEA was added to the diets at different levels to provide 0, 10, or 100 mg OEA/kg body weight. The mice were kept on each respective diet for 4 weeks. During the nutritional intervention, daily food intake was monitored and the mice were weighed 3 times a week.
Sampling. At the end of the experimental period, mice were sacrificed by blood drawing after anesthesia with isoflurane. Plasma was obtained by centrifugation (1,000 g for 10 min at 4° C.). Mesenteric, epididymal, inguinal and peritoneal adipose depots, as well as liver, stomach, small intestine mucosa and gastrocnemian muscle were excised and frozen into liquid nitrogen. Plasma and organ samples were kept at −80° C. until analysis. Triglycerides, glucose, total cholesterol and HDL cholesterol were directly measured on plasma samples collected during the sacrifice by enzymatic procedures, using a Beckman Coulter Systems SYNCHRON LX 20 (Beckman Coulter, Fullerton, USA) (oxidase method, Beckman Coulter for glucose, GPO method, Beckman Coulter for TG, oxidase and esterase method, Beckman Coulter for cholesterol). HDL were isolated by specific solubilization, using a precipitation isolation kit (Beckman Coulter, Fullerton, USA).
Statistical analysis. Results were determined as mean±standard error of the mean (SEM). Statistical analysis of physiological parameters was performed by one-way ANOVA on Statview software (SAS institute, Cary, USA). Statistical significance was set up at the P<0.05 level.

The conditions of data set [2]: cited from earlier work.
Data set [3] deals with Cannabinoid receptor 1 (CB 1). The data set is described as follows: Real-time PCR gene expression in peripheral tissues: CB1. The format is in vivo. To be noted: C57bl6j mice, high fat diet, 100 mg/kg/body weight in diet, 5 weeks. The procedure: (§1) The expression of 45 genes was measured by real-time PCR in peripheral tissues to identify genes that were differentially expressed in response to oral administration of oleoylethanolamide (OEA) or a non-hydrolysable OEA analog (KDS 5104), which affect satiety, lipid metabolism, fat utilization, food intake, and body fat mass.
(§2) Animals, diet, and experimental design. Adult male C57bl6j mice purchased at 8 weeks of age were individually housed and maintained ad libitum on high fat diet and water for 2 weeks. Seven mice were randomly allocated in 3 groups and fed with a high fat diet (lipids represented 50% of daily energy) for 2 weeks. For one kilogram, the composition of the high fat diet was: 235 g casein, 201 g saccharose, 3.5 g L-cystine, 85 g starch, 116 g maltodextrin, 60 g cellulose, 12 g vitamins mix (AIN-93M, UPAE, Jouy-en-Josas, France), 51.5 g mineral mix (AIN-93Vx, UPAE, Jouy-en-Josas, France), and 236 g lard. Then, either OEA or KDS 5104 was added to the diet at a concentration of 100 mg/kg/body weight. The mice were kept under treatment for 5 weeks.
(§3) Sampling. At the end of the experimental period, mice were sacrificed by blood drawing (cardiac puncture) after anesthesia with isoflurane. Plasma was obtained by centrifugation (1,000 g for 10 min at 4° C.). Mesenteric, epididymal, inguinal and peritoneal adipose depots, as well as liver, stomach, small intestine mucosa, pancreas, and gastrocnemian muscle were removed and frozen into liquid nitrogen. Plasma, urine, feces, and organ samples were kept at −80° C. until analysis.
(§4) RNA extraction and gene expression. Total RNA from liver, intestine mucous membrane, adipose tissues, gastrocnemian muscle, pancreas and stomach were extracted with TRIzol reagent (Invitrogen, Carlsbad, USA) according to the manufacturer's instruction. The RNA concentration was determined on nanodrop from the absorbance at 260 nm. Retro-transcription PCRs to synthesize cDNA were performed using an Applied Biosystem Thermal Cycler 2720 and Superscript II (Invitrogen, Carlsbad, USA) according to manufacturer's protocol. Real-time quantitative PCR (RT-qPCR) were performed on cDNA obtained as described above using a high through put system (Biomek 3000, Beckman & Coulter, Fullerton, USA) and a Lightcycler 480 (Roche/Hitachi, Basel, Switzerland) with SYBR Green Master mix+kit (Eurogentec, Philadelphia, USA). Primers for the selected genes were generated using online informatics assistance from the Lightcycler manufacturer (Roche). Databases used to identify the genes were (1) the NCBI database (GenBank) and (2) the IHOP (Information Hyperlinked over Protein) database (www.ihop-net.org/UniPub/iHOP/bng/). Values were expressed as ratio of RNA levels relative to control mice (diets with 0 mg of OEA/kg/body weight) using ΔΔ(Ct) (Livak K J & Schmittgen T D, 2001, Methods 25:402-8). Gene expression of the following genes was measured (abbreviation and GenBank Accession shown in parentheses).
(§5) Statistical analysis. […] Statistical analysis of physiological parameters and gene expression data was performed by one-way ANOVA on Statview software (SAS Institute, Cary, USA). Daily food intake was analyzed using two-way ANOVA on Statview software. Statistical significance was set up at the P<0.05 level, the P<0.01 level and the P<0.001 level. For statistical analysis of the gene expression data, values were calculated relative to 18S expression for each mouse and gene.
(In general: Real-time PCR tracks product formation cycle by cycle.)

A further data set has as its system CPT1. The data set is described as follows: Real-time PCR gene expression in peripheral tissues: CPT1. To be noted: C57bl6j mice, high fat diet, 100 mg/kg/body weight in diet, 5 weeks. Format: in vivo. The protocol:
as §1, §2, §3, §4, §5

In a further data set the test system is Cholescystokinin (CCK). The data set is described as follows: Real-time PCR gene expression in peripheral tissues: CCK. The format is in vivo. To be noted: proximal intestine; C57bl6j mice, high fat diet, 100 mg/kg/body weight in diet, 5 weeks. The procedure:
as §1
(§6) Animals, diet, and experimental design. Adult male C57bl6j mice purchased at 8 weeks of age were individually housed and maintained ad libitum on high fat diet and water for 2 weeks. Seven mice were randomly allocated in 3 groups and fed with a high fat diet (lipids represented 50% of daily energy) for 2 weeks. […]
(§7) RNA extraction and gene expression. […] The RNA concentration was determined on nanodrop from the absorbance at 260 nm. […] Real-time quantitative PCR (RT-qPCR) were performed on cDNA obtained as described above using a high through put system (Biomek 3000, Beckman & Coulter, Fullerton, USA) and a Lightcycler 480 (Roche/Hitachi, Basel, Switzerland) with SYBR Green Master mix+kit (Eurogentec, Philadelphia, USA). […] Values were expressed as ratio of RNA levels relative to control mice (diets with 0 mg of OEA/kg/body weight) using ΔΔ(Ct) (Livak K J & Schmittgen T D, 2001, Methods 25:402-8). Gene expression of the following genes was measured (abbreviation and GenBank Accession shown in parentheses). […]

Data set [4] deals with Fatty Acid Synthase (FAS 1). The data set is described as follows: Real-time PCR gene expression in peripheral tissues: FAS. The format is in vivo. To be noted: liver; C57bl6j mice, high fat diet, 100 mg/kg/body weight in diet, 5 weeks. The procedure:
as §1, §6, §7

Setting [5] is: rodents, intraperitoneal administration.

In the case of `CCCCCCCC/C=C\CCCCCCCC(=O)NCCO` [OEA, N-oleoyl-ethanolamide], the mesenteric fat pads entry in data set [1] (independently of the dose) was “remained unaffected”. Also, in data set [1] (OEA 10 or 100 mg/kg body weight), the Peritoneal adipose tissue result is on record as “mainly decreased”. Besides, in data set [1] (OEA in diet), the Hepatomegaly entry is recorded as “did not induce hepatomegaly” and the final body weight entry is recorded as “not affected”. For the same compound, in data set [1] (OEA in diet, P<0.05), the “inguinal fat pads (indicator of subcutaneous fat depot)” value is on record as “decreased”. In addition, the “food intake (meal size, first meal delay, meal intervals)” value in data set [2] (administrated intraperitoneally) is reported as “reduced food intake”. Further, in data set [2] (setting [5]), the body fat gain entry is given as “reduced body fat gain”; the “satiety and lipid utilization” value is “induce satiety and peripheral utilization of lipid substrate”. In addition, in data set [3] (epidydimal adipose tissue), the “CB1 at ep, ratio of RNA levels relative to control mice” value is on record as −1.94. The “CB1 at per, ratio of RNA levels relative to control mice” value in data set [3] (peritoneal adipose tissue) was −5.27. Moreover, in data set [3] (proximal intestine), the “CB1 i, ratio of RNA levels relative to control mice” value is listed as −1.02. Moreover, the “CPT1 l, ratio of RNA levels relative to control mice” value with CPT1 (liver) is listed as 1.74. The “CPT1 p, ratio of RNA levels relative to control mice” value in the data set with CPT1 (pancreas) was found to be 1.35. For the same compound, the “CPT1 i, ratio of RNA levels relative to control mice” value in the data set with CPT1 (proximal intestine) came to 2.00. The “CCK i, ratio of RNA levels relative to control mice” value with Cholescystokinin (CCK) worked out at 1.57. Further, the “FAS l, ratio of RNA levels relative to control mice” value in data set [4] worked out at 1.65.
